{
  "source": "patent US20260248767A1",
  "about": "“METHODS FOR INDUCING FERROPTOSIS IN CANCER” (Board of Regents, The University of Texas System, priority 2023, published 2026)",
  "key": {"[1]": {"test_system": "HT-1080 cells", "assay": "Cell viability assay (CCK-8)", "format": "cell-based, human", "description": "Cell viability was measured using a Cell Counting Kit-8 (CCK-8, Dojindo) as previously described (Koppula, P., et al. J Biol Chem 292, 14240-14249, doi: 10.1074/jbc.M117.798405 (2017); Liu, X. et al. Nat Cell Biol 18, 431-442, doi: 10.1038/ncb3328 (2016)). In brief, cells were seeded onto 96-well plates at a density of 1×10^4 per well. The next day, cells were treated with indicated compound for 16-20 h. Subsequently, cells were changed to new 100 μl medium containing 10 μl CCK-8 reagent for 1 h at 37° C., 5% CO2 in incubator. The absorbance at 450 nm was determined using a FLUOstar Omega microplate reader (BMG Labtech)."}, "[2]": {"test_system": "HT-1080 cells", "assay": "Lipid peroxidation measurement (C11-BODIPY 581/591, flow cytometry)", "format": "cell-based, human", "conditions": "combined with RSL3, compared to RSL3 alone", "description": "Cells were seeded on 12-well plates and incubated overnight. After treating with compounds for indicated time, cells were incubated in media containing 5 μM C11-BODIPY 581/591 (Invitrogen) for 30 min at 37° C. Then cells were trypsinized and collected. […] All experiments were performed in triplicates."}, "[3]": {"test_system": "HT-1080 cells", "assay": "Relative mitochondrial lipid peroxidation level", "format": "cell-based, human", "conditions": "combined with RSL3, compared to RSL3 alone"}, "[4]": {"test_system": "NADP+/NADPH", "assay": "NADP+ and NADPH measurement", "format": "cell-based", "conditions": "treated vs untreated cells"}, "[5]": {"test_system": "oxidative PPP", "assay": "Oxidative PPP flux calculation (1,2-[13C2] glucose)", "format": "cell-based", "conditions": "sulfite vs vehicle treated cells", "description": "Cells were seeded in six-well plates and incubated overnight, then given 2 ml of fresh medium containing 25 mM 1,2-[13C2] glucose. Aliquots of this medium were frozen and stored for analysis to determine the initial glucose concentration, and cells in replicate plates were trypsinized and counted to determine initial cell numbers. After 24 h, the spent medium was extracted as above and frozen until analysis, and the cells were trypsinized and counted to determine the final cell numbers.\nFor lactate isotopomer analysis the samples were analyzed directly. The relative quantities of M0, M1, M2 and M3 lactate were corrected for natural carbon-13 abundance using the IsoCorrectoR software package (Heinrich, P. et al. Sci Rep 8, 17910, doi: 10.1038/s41598-018-36293-4 (2018)). and the oxidative PPP-shunting ratio was calculated by taking the ratio M1/(M1+M2) (Badur, M. G. et al. Cell Rep 25, 1680, doi: 10.1016/j.celrep.2018.10.099 (2018)); since there is no difference in growth rates between the vehicle and sulfite treated cell lines, it is assumed that the biosynthetic demand for ribose-5-phosphate or any other PPP intermediate is the same in each case, so any increase in this ratio reflects an increase in NADPH production by the oxidative PPP."}, "[6]": {"test_system": "one-carbon metabolism", "assay": "dTTP levels and labelling (serine through one-carbon metabolism)", "format": "cell-based", "conditions": "sulfite vs vehicle treated samples, over time", "description": "The total dTTP, M+1dTTP and M+2 dTT were measured in the presence or absence of sulfite.\nThe complete platform consists of an Accela 1250 HPLC system, Accela Open Autosampler, MayLab Mistraswitch column oven and Exactive orbitrap mass spectrometer, controlled by the Xcalibur 3.0.63 software package. Chromatography was performed with a Phenomenex Synergi Hydro-RP column (100×2 mm, 2.5 μm particle size). Solvent A is 10 mM tributylamine and 15 mm acetic acid in water; Solvent B is methanol. The gradient is: 0 min, 0% B; 2.5 min, 0% B; 5 min, 20% B; 7.5 min, 20% B; 13 min, 55% B; 15.5 min, 95% B; 18.5 min, 95% B; 19 min, 0% B; 25 min, 0% B. The injection volume was 10 μl. The column temperature was set to 40° C., and the flow rate was 200 μl/min. The Exactive was operated in negative ionization mode with an electrospray ionization interface. The instrument parameters are as follows: sheath gas flow rate 30 (arbitrary units), aux gas flow rate 10 (arbitrary units), sweep gas flow rate 3 (arbitrary units), spray voltage 3 kV, capillary temperature 325° C., capillary voltage −25 V, tube lens voltage −50 V. The scan range was set to 80-1,000 m/z, with a maximum inject time of 250 ms, resolution of 100,000 at 1 Hz, and AGC (automatic gain control) target 1×10^6. The data were analyzed using the MAVEN software suite with signal intensity determined as the Peak Area (Top). For metabolic labelling experiments, the data were corrected to account for the natural abundance of nitrogen-15 using IsoCorrectoR (Heinrich, P. et al. Sci Rep 8, 17910, doi: 10.1038/s41598-018-36293-4 (2018))."}, "[7]": {"test_system": "SHMT2", "assay": "Protein level after sulfite treatment (Western blotting), SHMT2", "format": "cell-based", "conditions": "following treatment with sulfite", "description": "(§1) To test if sulfite changed mitochondrial protein levels, SHMT2 and MTHFD2 protein levels were measured following treatment with sulfite. No changes in protein levels were observed (FIG. 9).\n(§2) Briefly, cells were lysed in NP-40 lysis buffer (50 mM Tris [pH 7.4], 250 mM NaCl, 5 mM EDTA, 50 mM NaF, 1 mM Na3VO4, 1% Nonidet P40) containing complete mini protease inhibitors (Roche). The protein concentration of lysates was quantified using BCA Protein Assay Kit from Life Technologies (#23227). 20 μg of total protein was loaded into SDS-PAGE gel and transferred to a PVDF membrane (Bio-Rad) using standard techniques. The primary antibodies and concentrations used for Western blotting were Vinculin (1:1000, Sigma-Aldrich, #V4505), SUOX (1:1000, Abcam, #ab129094), SHMT2 (1:1000, Sigma-Aldrich, #HPA-020549), IDH1 (1:1000, Proteintech, #12332-1-AP), ME1 (1:1000,), MTHFD2 (1:1000, Abcam, #ab56772), Flag (1:1000, Sigma, #F1804), GPX4 (1:1,000, R&D, #MAB5457), COQ2 (1:1,000, Santa Cruz, sc-517107) and FSP1 (1:1000, Proteintech, #20886-1-AP)."}, "[8]": {"test_system": "MTHFD2", "assay": "Protein level after sulfite treatment (Western blotting), MTHFD2", "format": "cell-based", "conditions": "following treatment with sulfite", "description": "as §1, §2"}, "[9]": {"test_system": "HT-1080 cells", "assay": "Cell death assay (PI flow cytometry), HT-1080 cells incl. knockout lines", "quoted_text": "Initially, the effect of sulfite on ferroptosis was studied. […] Each group was treated with vehicle alone or with sulfite.\nThe knockout cells were identified by immunoblotting.\nBriefly, cells were seeded in 12-well plates and incubated overnight. After treatment, cells were trypsinized and collected. After washing with cold phosphate-buffered saline (PBS), the cells were stained with 2 μg/mL propidium iodide (PI) in cold PBS. […] All experiments were performed in triplicates."}},
  "data": [
    {"smiles": "O=S([O-])[O-].[Na+].[Na+]", "note": "[sulfite, sodium sulfite]", "values": [
      {"measurement": "cell viability when combined with different concentrations of RSL3", "setting": "[1]; combined with RSL3, range of concentrations", "value": "reduces cell viability"},
      {"measurement": "sensitization effect on cell viability in SHMT2 knock out cells", "setting": "[1]; sulfite plus multiple concentrations of RSL3, SHMT2 knock out vs wild type", "value": "much weaker than in wild type cells"},
      {"measurement": "relative lipid peroxidation level in combination with RSL3", "setting": "[2]", "value": "significantly increased"},
      {"measurement": "relative mitochondrial lipid peroxidation level in combination with RSL3", "setting": "[3]", "value": "significantly increased"},
      {"measurement": "NADP+/NADPH ratio", "setting": "[4]", "value": "increase"},
      {"measurement": "oxPPP shunting", "setting": "[5]", "value": "increase"},
      {"measurement": "M+1dTTP", "setting": "[6]", "value": "decreased over time"},
      {"measurement": "M+2 dTT", "setting": "[6]", "value": "decreased over time"},
      {"measurement": "total dTTP", "setting": "[6]", "value": "decreased over time"},
      {"measurement": "SHMT2 protein level", "setting": "[7]", "value": "No changes"},
      {"measurement": "MTHFD2 protein level", "setting": "[8]", "value": "No changes"},
      {"measurement": "cell death as observed visually", "setting": "[9]; 0.5 mM, cancer cells, presence or absence of RSL3", "value": "resulted in cell death"},
      {"measurement": "sensitization of knock out cells to ferroptosis", "setting": "[9]; GPX4, FSP1, COQ2 and DHODH knock out cell lines", "value": "can still sensitize"},
      {"measurement": "cell death in combination with RSL3 in SHMT2 knock out cells", "setting": "[9]; RSL3+Sulfite vs RSL3 alone, SHMT2 knock out cells (FIG. 5J)", "value": "slight increase in cell death"},
      {"measurement": "cell death in combination with RSL3 in SUOX knockout cells", "setting": "[9]; SUOX knockout HT-1080 cells, vs RSL3 alone", "value": "significantly more cell death"},
      {"measurement": "sensitization to RSL3 induced ferroptosis under co-treatment with ferroptosis regulator inhibitors", "setting": "[9]; co-treatment with 4CBA, iFSP1 or brequinar (BQR)", "value": "can still sensitize"},
      {"measurement": "cell death in combination with RSL3", "setting": "[9]; combined with RSL3, compared to RSL3 alone", "value": "significant increased cell death"},
      {"measurement": "cell death in combination with FIN56", "setting": "[9]; combined with ferroptosis inducer FIN56", "value": "similarly enhanced"},
      {"measurement": "cell death in combination with JKE-1674", "setting": "[9]; combined with ferroptosis inducer JKE-1674 (JKE)", "value": "similarly enhanced"},
      {"measurement": "cell death in combination with ML-162", "setting": "[9]; combined with ferroptosis inducer ML-162", "value": "similarly enhanced"},
      {"measurement": "cell death in combination with ML-210", "setting": "[9]; combined with ferroptosis inducer ML-210", "value": "similarly enhanced"}
    ]}
  ]
}
